Test results from PubChem BioAssay (NCI).
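Tested at 5 concentrations; 48 h exposure; 96-well plates; endpoints linearly interpolated, else capped at highest concentration. GI50: concentration for 50% inhibition of growth. Definition used: TGI = concentration required for complete inhibition of growth.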

Assays:
Assay in all cases: NCI anticancer screen, dose series, 48 h
HS 578T breast = test system: HS 578T breast
DU-145 prostate = test system: DU-145 prostate
HT29 colon = test system: HT29 colon
OVCAR-4 ovarian = test system: OVCAR-4 ovarian
HL-60(TB) leukemia = test system: HL-60(TB) leukemia
CAKI-1 renal = test system: CAKI-1 renal
ACHN renal = test system: ACHN renal
MDA-MB-435 = test system: MDA-MB-435
SN12C renal = test system: SN12C renal
SF-539 CNS = test system: SF-539 CNS

SMILES | TGI (HS 578T breast) | TGI (DU-145 prostate) | TGI (HT29 colon) | TGI (OVCAR-4 ovarian) | TGI (HL-60(TB) leukemia) | TGI (CAKI-1 renal) | TGI (ACHN renal) | TGI (MDA-MB-435) | TGI (SN12C renal) | TGI (SF-539 CNS) | GI50 (HS 578T breast) | GI50 (DU-145 prostate) | GI50 (HT29 colon) | GI50 (OVCAR-4 ovarian) | GI50 (HL-60(TB) leukemia) | GI50 (CAKI-1 renal) | GI50 (ACHN renal) | GI50 (MDA-MB-435) | GI50 (SN12C renal) | GI50 (SF-539 CNS)
COC(=O)C1=C(C)NC(C)=C(C(=O)OCCCN2CCC(c3ccccc3)(c3ccccc3)CC2)C1c1cccc([N+](=O)[O-])c1 (configuration not stated) | 4.57 µM | 3.31 µM | 2.71 µM | 2.98 µM | 75 µM | 11.8 µM | 3.05 µM | 3.02 µM | 2.99 µM | 3.27 µM |  |  |  |  |  |  |  |  |  | 
CCCCCCCC(=O)SCC/C=C/[C@@H]1CC(=O)NCc2cc(ccn2)C2=N[C@@](C)(CS2)C(=O)N[C@@H](C(C)C)C(=O)O1 | 0.203 µM | > 33.3 µM | > 33.3 µM | > 33.3 µM | > 33.3 µM | 0.665 µM | 0.434 µM |  | > 33.3 µM | > 33.3 µM | 7.45 nM | 13.8 nM | 11.2 nM | 53.5 nM | 24.2 nM | 104 nM | 43.3 nM | 11.5 nM | 64.1 nM | 20.3 nM
CC(=O)OC1=CC(n2cc(F)c(=O)[nH]c2=O)OC(C)C1=O (configuration not stated) | > 100 µM | > 100 µM | > 100 µM | > 100 µM | > 100 µM | > 100 µM | > 100 µM | > 100 µM | > 100 µM | 29 µM |  |  |  |  |  |  |  |  |  | 
CC(C)C(C)/C=C\C(C)C1CCC2C3=CC=C4CC(O)CCC4(C)C3CCC21C (configuration not stated) | > 64.2 µM | > 100 µM | > 55.8 µM | > 100 µM | > 77.7 µM | > 60.4 µM | > 65.7 µM | > 83.5 µM | > 60.2 µM | > 64 µM |  |  |  |  |  |  |  |  |  | 
COc1ccc(/C=C(/C#N)n2nnc3cccc(F)c32)cc1 | 6.41 µM | 4.67 µM | > 100 µM | > 100 µM | 16.2 µM | 11.8 µM | > 100 µM | 0.471 µM | > 100 µM | 4.06 µM | 1660 nM | 1360 nM | 410 nM | 2000 nM | 527 nM | 733 nM | 1310 nM | 180 nM | 1930 nM | 1620 nM
Nc1ncnc2c1nnn2C1OC(CO)C(O)C1O (configuration not stated) | 4.72 µM | 1.91 µM | 21.9 µM | 8.48 µM | 2.16 µM | 2.88 µM | 8.84 µM | 2.44 µM | 6.77 µM | 9.04 µM | 467 nM | 144 nM |  |  |  |  | 141 nM | 273 nM |  | 
COc1cc(/C=C/c2cc(O)c(C(C)=O)c(O)c2)cc2c1O[C@]1(C)CC[C@@H](O)C(C)(C)[C@H]1C2 | 16.2 µM | > 100 µM | > 100 µM | 74.5 µM | 23.8 µM | > 100 µM | 78.3 µM | 57.2 µM | 72.8 µM | 6.2 µM | 1870 nM | 16600 nM | 4050 nM | 13500 nM | 4130 nM | 4120 nM | 10500 nM | 7380 nM | 9070 nM | 1320 nM
Cc1cc(/C=C/c2ccc3cc(N(C)C)ccc3[n+]2C)c(C)n1-c1ccccc1 | 9.56 µM | 0.846 µM | 2.52 µM | 5.23 µM | 0.352 µM | 2.24 µM | 1.74 µM | 0.8 µM | 0.636 µM | 2.47 µM | 361 nM | 175 nM | 133 nM | 72.3 nM | 93.9 nM | 722 nM | 596 nM | 177 nM | 159 nM | 336 nM
COC1=CC(=O)C(C2CC(=O)c3c(O)cc(O)cc3O2)=CC1=O (configuration not stated) | 83 µM | 35.3 µM | > 61.3 µM | 36.5 µM | > 21.3 µM | 33.1 µM | 29.7 µM | 31.6 µM | 37.4 µM | 39.5 µM |  |  |  |  |  |  |  |  |  | 
OCCCCCNCc1cc2cc3c(cc2c2cc(OCc4ccccc4)ccc12)OCO3 | 3.56 µM | 2.88 µM | 3 µM | 3.59 µM | 3.65 µM | 3.74 µM | 2.93 µM | 3.02 µM | 13.4 µM | 3 µM | 1790 nM | 1540 nM | 1500 nM | 1870 nM | 1520 nM | 1770 nM | 1580 nM | 1660 nM | 3400 nM | 1640 nM
COc1cc2c3c(n(C)c(=O)c2cc1OC)-c1cc2c(cc1/C3=C\CCN)OCO2 |  | 11.4 µM | > 34.8 µM | 6.54 µM | 1.52 µM | 3.02 µM | 0.585 µM | 9.56 µM | 17.6 µM | 3.74 µM | 2010 nM | 362 nM | 138 nM | 792 nM | 236 nM | 112 nM | 47.6 nM | 538 nM | 583 nM | 215 nM
COc1cc(OC)cc(-c2cc(=O)c3c(OC)c(OC)c(OC)c(OC)c3o2)c1 | 90.6 µM | > 100 µM | > 100 µM | > 100 µM | > 100 µM | > 100 µM | > 100 µM | > 100 µM | > 100 µM | > 100 µM |  |  |  |  |  |  |  |  |  | 
NS(=O)(=O)c1cc(Br)c(N=Nc2ccc(O)c3ncccc23)c(Br)c1 | 78.5 µM | > 100 µM | > 100 µM | > 100 µM | 29.4 µM | > 100 µM | 43.9 µM | > 100 µM | > 100 µM | > 100 µM |  |  |  |  |  |  |  |  |  | 
OCc1ccc(-c2ccc(-c3ccc(CO)s3)o2)s1 | 86.6 µM | 66.5 µM | > 95 µM | 2.76 µM | 38.2 µM | 0.061 µM | > 94.1 µM | 17.3 µM | 81 µM | > 85.8 µM |  |  |  |  |  |  |  |  |  | 
Cc1cc(O)c(/C=N/C(=S)NCc2ccccc2)c(=O)o1 | > 100 µM | > 100 µM | > 100 µM | > 100 µM | > 100 µM | > 100 µM | > 100 µM | > 100 µM | > 100 µM | > 100 µM |  |  |  |  |  |  |  |  |  | 
Nc1ncnc2n[nH]c(Nc3ccc(F)cc3)c12 | > 100 µM | 42.1 µM | > 100 µM | 75.2 µM | > 100 µM | > 100 µM | > 100 µM | 49.6 µM | > 100 µM | > 100 µM | 20600 nM | 9330 nM | 25300 nM | 19000 nM | 38500 nM | 4050 nM | 5460 nM | 19700 nM | 35600 nM | 23600 nM
